Experiments:
[1] = Antiproliferative activity against human MGC803 cells after 48 hrs by MTT assay; format: functional, cell-based; conditions: MGC-803, 48 h
HepG2 = assay: Antiproliferative activity against human HepG2 cells after 48 hrs by MTT assay; format: functional, cell-based; conditions: HepG2, 48 h
[2] = Antiproliferative activity against human SGC7901 cells after 48 hrs by MTT assay; format: functional, cell-based; conditions: SGC-7901, 48 h
[3] = target: Telomerase reverse transcriptase (Homo sapiens, UniProt O14746); assay: Inhibition of telomerase in human MGC803 cells after 24 hrs by TRAP-PCR-ELISA method; format: cell-based, MGC-803
Chain of Telomerase reverse transcriptase (O14746 whole entry): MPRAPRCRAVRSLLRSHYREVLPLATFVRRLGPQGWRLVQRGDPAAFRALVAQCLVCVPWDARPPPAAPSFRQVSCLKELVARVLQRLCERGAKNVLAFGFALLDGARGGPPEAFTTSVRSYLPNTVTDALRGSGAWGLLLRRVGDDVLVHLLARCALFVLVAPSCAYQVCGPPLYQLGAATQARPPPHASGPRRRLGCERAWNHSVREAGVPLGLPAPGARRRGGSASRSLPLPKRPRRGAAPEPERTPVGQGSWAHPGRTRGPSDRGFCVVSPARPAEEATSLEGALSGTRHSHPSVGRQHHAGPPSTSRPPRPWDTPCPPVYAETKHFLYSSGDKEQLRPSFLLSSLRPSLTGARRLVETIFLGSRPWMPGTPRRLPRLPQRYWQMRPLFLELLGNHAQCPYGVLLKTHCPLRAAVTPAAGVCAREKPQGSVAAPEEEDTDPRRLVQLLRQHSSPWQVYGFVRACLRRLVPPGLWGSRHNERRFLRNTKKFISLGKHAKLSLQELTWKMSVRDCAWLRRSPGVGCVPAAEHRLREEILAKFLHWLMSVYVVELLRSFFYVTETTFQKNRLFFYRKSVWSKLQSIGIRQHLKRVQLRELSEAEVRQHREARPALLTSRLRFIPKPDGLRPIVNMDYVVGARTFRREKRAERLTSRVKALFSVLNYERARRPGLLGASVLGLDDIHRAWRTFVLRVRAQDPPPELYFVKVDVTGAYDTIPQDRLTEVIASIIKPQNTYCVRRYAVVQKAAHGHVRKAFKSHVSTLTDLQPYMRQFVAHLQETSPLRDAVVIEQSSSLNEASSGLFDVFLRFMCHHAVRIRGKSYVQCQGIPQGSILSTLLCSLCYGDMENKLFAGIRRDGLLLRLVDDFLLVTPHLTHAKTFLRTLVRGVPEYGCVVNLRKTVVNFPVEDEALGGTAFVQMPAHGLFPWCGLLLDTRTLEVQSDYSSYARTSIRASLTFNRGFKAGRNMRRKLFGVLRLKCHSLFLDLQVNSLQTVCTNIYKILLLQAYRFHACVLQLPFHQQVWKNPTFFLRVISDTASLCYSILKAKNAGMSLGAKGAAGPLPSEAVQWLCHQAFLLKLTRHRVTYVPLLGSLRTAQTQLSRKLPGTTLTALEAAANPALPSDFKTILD

| SMILES | EC50 [1] [µM] | EC50 (HepG2) [µM] | EC50 [2] [µM] | IC50 [3] [µM] |
| --- | --- | --- | --- | --- |
| CC1=NN(S(=O)(=O)c2ccccc2I)C(c2cc(Br)ccc2O)C1 (stereo not given) | 52.5 | > 60 | > 60 |  |
| CC1=NN(C(=O)CCl)C(c2cc(F)ccc2O)C1 (stereo not given) | 6.87 | 4.21 | 7 |  |
| COc1ccc(S(=O)(=O)N2N=C(C)CC2c2cc(Br)ccc2O)cc1 (stereo not given) | 20.3 | 38.2 | 21.1 |  |
| CC1=NN(S(=O)(=O)c2ccc(F)cc2)C(c2cc(Br)ccc2O)C1 (stereo not given) | 15.5 | 50.1 | > 60 |  |
| CC1=NN(S(=O)(=O)c2ccc(Cl)cc2Cl)C(c2cc(Br)ccc2O)C1 (stereo not given) | 37.9 | 45.2 | > 60 |  |
| CC1=NN(C(=O)C(F)(F)F)C(c2ccccc2O)C1 (stereo not given) | 2.89 | 4.8 | 2.06 | 1.86 |
| CC1=NN(S(=O)(=O)c2ccc(C(F)(F)F)cc2)C(c2cc(Br)ccc2O)C1 (stereo not given) | 30 | 22.1 | 16.3 | > 60 |
| CC1=NN(C(=O)CBr)C(c2ccccc2O)C1 (stereo not given) | 3.65 | 14.4 | 4.18 |  |
| CC1=NN(S(=O)(=O)c2ccc(Cl)cc2)C(c2cc(Br)ccc2O)C1 (stereo not given) | > 60 | > 60 | > 60 |  |
| CC1=NN(S(=O)(=O)c2ccccc2)C(c2cc(Br)ccc2O)C1 (stereo not given) | > 60 | > 60 | 55.6 |  |
| COc1ccc(C(=O)N2N=C(C)CC2c2ccccc2O)cc1 (stereo not given) | 38.5 | 40.3 | 45.7 | 25 |
| CC1=NN(S(=O)(=O)c2ccccc2C)C(c2cc(Br)ccc2O)C1 (stereo not given) | > 60 | 39.3 | 48.1 |  |
| CC1=NN(C(=O)CCl)C(c2cc(Cl)ccc2O)C1 (stereo not given) | 12.2 | 20.3 | 14 |  |
| CC1=NN(C(=O)c2ccc(F)cc2)C(c2ccccc2O)C1 (stereo not given) | 35.4 | 39.2 | 50.3 | 29.8 |
| CC1=NN(C(=O)CCl)C(c2cc(Br)ccc2O)C1 (stereo not given) | 10.5 | 12.3 | 9.21 |  |
| CC1=NN(C(=O)CF)C(c2ccccc2O)C1 (stereo not given) | 4.26 | 9.41 | 8.6 | 4 |
| CC1=NN(S(=O)(=O)c2ccc([N+](=O)[O-])cc2)C(c2cc(Br)ccc2O)C1 (stereo not given) | 22.2 | > 60 | 27.3 |  |
| O=c1[nH]cc(F)c(=O)[nH]1 [FLUOROURACIL] | 3.35 | 2.21 | 7.03 |  |
| CC[n+]1c(-c2ccccc2)c2cc(N)ccc2c2ccc(N)cc21 [HOMIDIUM BROMIDE] |  |  |  | 2.18 |

From ChEMBL document CHEMBL3779782, “Identification of human telomerase inhibitors having the core of N-acyl-4,5-dihydropyrazole with anticancer effects” (Bioorg Med Chem Lett, 2016)
